Tests used:
[1] = water solubility of free base and salts of compound 3; type: physicochemical
Description: (§1) In an exemplary embodiment, the solubility of the free base form of compound 3 in THF, DMSO and DMF was high but the solubility in group 3 solvents, including water for example, was low. For example, acetone is needed to dissolve the free base at 50° C. […] HCl, phosphoric acid, tartaric acid, acetic acid, D-, L-glucoronic acid and succinic acid were used to prepare pharmaceutically acceptable salts of compound 3. One crystalline form of compound 3 as a mono-succinate salt and five crystalline polymorphs of compound 3 as a hemi-succinate salt are provided in the Examples.

[2] = solubility of free base in organic solvents / group 3 solvents; type: physicochemical; conditions: free base form
Description: as §1

SMILES | solubility ([1]; thermodynamic from solid, in water) [µg/mL] | Solubility in water ([1]; free base, thermogravimeteric method) | solubility in DMF ([2]; DMF) | solubility in DMSO ([2]; DMSO) | solubility in THF ([2]; THF) | solubility in group 3 solvents, including water ([2]; group 3 solvents, including water)
COc1ccc(-c2ccnc(Nc3ccc(S(=O)(=O)NCCCN(C)C)cc3)n2)cc1F.O=C(O)CCC(=O)O [mono-succinate, N-(3-(dimethylamino)propyl)-4-(4-(3-fluoro-4-methoxyphenyl)pyrimidin-2-ylamino)benzenesulfonamide] | 1100 | – | – | – | – | –
COc1ccc(-c2ccnc(Nc3ccc(S(=O)(=O)NCCCN(C)C)cc3)n2)cc1F [compound 3] | – | not detectable | high | high | high | low
